Active and inactive are the calls of the source. The calls are words filed in the database; no cut-off is given here.
Columns and labels:
SF-295 [1] = assay: Growth inhibition of human SF-295 cells at 10 uM incubated for 48 hrs by sulforhodamine B assay relative to control; format: functional; settings: read-out: GI
SR [2] = assay: Growth inhibition of human SR cells at 10 uM incubated for 48 hrs by sulforhodamine B assay relative to control; format: functional; settings: read-out: GI
HCT-116 [3] = assay: Growth inhibition of human HCT-116 cells incubated for 48 hrs by sulforhodamine B assay; format: functional
MDA-MB-231 [4] = assay: Growth inhibition of human MDA-MB-231 cells incubated for 48 hrs by sulforhodamine B assay; format: functional
UACC-257 [5] = assay: Growth inhibition of human UACC-257 cells incubated for 48 hrs by sulforhodamine B assay; format: functional
[6] = Therapeutic index, ratio of LC50 for human Panel NCI-60 (60 carcinoma cell lines) to GI50 for human Panel NCI-60 (60 carcinoma cell lines); format: functional
SK-MEL-2 [7] = assay: Growth inhibition of human SK-MEL-2 cells incubated for 48 hrs by sulforhodamine B assay; format: functional
NCI-H460 [8] = assay: Growth inhibition of human NCI-H460 cells at 10 uM incubated for 48 hrs by sulforhodamine B assay relative to control; format: functional; settings: read-out: GI
NCI-H226 [9] = assay: Growth inhibition of human NCI-H226 cells at 10 uM incubated for 48 hrs by sulforhodamine B assay relative to control; format: functional; settings: read-out: GI
U-251 [10] = assay: Growth inhibition of human U-251 cells incubated for 48 hrs by sulforhodamine B assay; format: functional
U-251 [11] = assay: Growth inhibition of human U-251 cells at 10 uM incubated for 48 hrs by sulforhodamine B assay relative to control; format: functional; settings: read-out: GI
HOP-92 [12] = assay: Growth inhibition of human HOP-92 cells incubated for 48 hrs by sulforhodamine B assay; format: functional
MCF7 [13] = assay: Growth inhibition of human MCF7 cells incubated for 48 hrs by sulforhodamine B assay; format: functional
OVCAR-5 [14] = assay: Growth inhibition of human OVCAR-5 cells at 10 uM incubated for 48 hrs by sulforhodamine B assay relative to control; format: functional; settings: read-out: GI
[15] = system: Panel NCI-60 (60 carcinoma cell lines); assay: Growth inhibition of human Panel NCI-60 (60 carcinoma cell lines) incubated for 48 hrs by sulforhodamine B assay; format: functional
BV-2 [16] = assay: Antiinflammatory activity against mouse BV2 cells assessed as reduction in LPS-induced IL6 production at 1 uM by enzyme immunoassay; format: functional, cell-based
K562 [17] = assay: Growth inhibition of human K562 cells incubated for 48 hrs by sulforhodamine B assay; format: functional
TK-10 [18] = assay: Growth inhibition of human TK-10 cells at 10 uM incubated for 48 hrs by sulforhodamine B assay relative to control; format: functional; settings: read-out: GI
HOP-92 [19] = assay: Growth inhibition of human HOP-92 cells at 10 uM incubated for 48 hrs by sulforhodamine B assay relative to control; format: functional; settings: read-out: GI
TK-10 [20] = assay: Growth inhibition of human TK-10 cells incubated for 48 hrs by sulforhodamine B assay; format: functional
RPMI-8226 [21] = assay: Growth inhibition of human RPMI8226 cells at 10 uM incubated for 48 hrs by sulforhodamine B assay relative to control; format: functional; settings: read-out: GI
HOP-62 [22] = assay: Growth inhibition of human HOP-62 cells at 10 uM incubated for 48 hrs by sulforhodamine B assay relative to control; format: functional; settings: read-out: GI
OVCAR-5 [23] = assay: Growth inhibition of human OVCAR-5 cells incubated for 48 hrs by sulforhodamine B assay; format: functional
BV-2 [24] = assay: Antiinflammatory activity against mouse BV2 cells assessed as decrease in LPS-induced NO production at 1 to 5 uM pretreated with compound followed by LPS stimulation incubated for 4 to 48 hrs by enzyme immunoassay; format: functional, cell-based; settings: dose 1-5 µM, time 4-48 hrs
T47D [25] = assay: Growth inhibition of human T47D cells at 10 uM incubated for 48 hrs by sulforhodamine B assay relative to control; format: functional; settings: read-out: GI
IGROV-1 [26] = assay: Growth inhibition of human IGROV-1 cells incubated for 48 hrs by sulforhodamine B assay; format: functional
UO-31 [27] = assay: Growth inhibition of human UO-31 cells at 10 uM incubated for 48 hrs by sulforhodamine B assay relative to control; format: functional; settings: read-out: GI
HCT-116 [28] = assay: Growth inhibition of human HCT-116 cells at 10 uM incubated for 48 hrs by sulforhodamine B assay relative to control; format: functional; settings: read-out: GI
IGROV-1 [29] = assay: Growth inhibition of human IGROV-1 cells at 10 uM incubated for 48 hrs by sulforhodamine B assay relative to control; format: functional; settings: read-out: GI
SW-620 [30] = assay: Growth inhibition of human SW-620 cells incubated for 48 hrs by sulforhodamine B assay; format: functional
NCI-H460 [31] = assay: Growth inhibition of human NCI-H460 cells incubated for 48 hrs by sulforhodamine B assay; format: functional
K562 [32] = assay: Growth inhibition of human K562 cells at 10 uM incubated for 48 hrs by sulforhodamine B assay relative to control; format: functional; settings: read-out: GI
RPMI-8226 [33] = assay: Growth inhibition of human RPMI-8226 cells incubated for 48 hrs by sulforhodamine B assay; format: functional; settings: dose 10 µM
SK-MEL-2 [34] = assay: Growth inhibition of human SK-MEL-2 cells at 10 uM incubated for 48 hrs by sulforhodamine B assay relative to control; format: functional; settings: read-out: GI
BV-2 [35] = assay: Cytotoxicity against mouse BV2 cells incubated for 48 hrs by MTT assay; format: cell-based; settings: BV-2, 48 h
UACC-62 [36] = assay: Growth inhibition of human UACC-62 cells at 10 uM incubated for 48 hrs by sulforhodamine B assay relative to control; format: functional; settings: read-out: GI
T47D [37] = assay: Growth inhibition of human T47D cells incubated for 48 hrs by sulforhodamine B assay; format: functional
MDA-MB-468 [38] = assay: Growth inhibition of human MDA-MB-468 cells incubated for 48 hrs by sulforhodamine B assay; format: functional
BV-2 [39] = assay: Antiinflammatory activity against mouse BV2 cells assessed as inhibition of LPS-induced TNFalpha production at 1 uM by enzyme immunoassay; format: functional
OVCAR-4 [40] = assay: Growth inhibition of human OVCAR-4 cells incubated for 48 hrs by sulforhodamine B assay; format: functional
NCI-H226 [41] = assay: Growth inhibition of human NCI-H226 cells incubated for 48 hrs by sulforhodamine B assay; format: functional
UO-31 [42] = assay: Growth inhibition of human UO-31 cells incubated for 48 hrs by sulforhodamine B assay; format: functional
CAKI-1 [43] = assay: Growth inhibition of human CAKI-1 cells incubated for 48 hrs by sulforhodamine B assay; format: functional
OVCAR-3 [44] = assay: Growth inhibition of human OVCAR-3 cells incubated for 48 hrs by sulforhodamine B assay; format: functional
MDA-MB-468 [45] = assay: Growth inhibition of human MDA-MB-468 cells at 10 uM incubated for 48 hrs by sulforhodamine B assay relative to control; format: functional; settings: read-out: GI
OVCAR-4 [46] = assay: Growth inhibition of human OVCAR-4 cells at 10 uM incubated for 48 hrs by sulforhodamine B assay relative to control; format: functional; settings: read-out: GI
CAKI-1 [47] = assay: Growth inhibition of human CAKI-1 cells at 10 uM incubated for 48 hrs by sulforhodamine B assay relative to control; format: functional; settings: read-out: GI
HOP-62 [48] = assay: Growth inhibition of human HOP-62 cells incubated for 48 hrs by sulforhodamine B assay; format: functional
SR [49] = assay: Growth inhibition of human SR cells incubated for 48 hrs by sulforhodamine B assay; format: functional
MDA-MB-231 [50] = assay: Growth inhibition of human MDA-MB-231 cells at 10 uM incubated for 48 hrs by sulforhodamine B assay relative to control; format: functional; settings: read-out: GI
UACC-257 [51] = assay: Growth inhibition of human UACC-257 cells at 10 uM incubated for 48 hrs by sulforhodamine B assay relative to control; format: functional; settings: read-out: GI
SW-620 [52] = assay: Growth inhibition of human SW-620 cells at 10 uM incubated for 48 hrs by sulforhodamine B assay relative to control; format: functional; settings: read-out: GI
OVCAR-3 [53] = assay: Growth inhibition of human OVCAR-3 cells at 10 uM incubated for 48 hrs by sulforhodamine B assay relative to control; format: functional; settings: read-out: GI
UACC-62 [54] = assay: Growth inhibition of human UACC-62 cells incubated for 48 hrs by sulforhodamine B assay; format: functional
MCF7 [55] = assay: Growth inhibition of human MCF7 cells at 10 uM incubated for 48 hrs by sulforhodamine B assay relative to control; format: functional; settings: read-out: GI
SF-295 [56] = assay: Growth inhibition of human SF-295 cells incubated for 48 hrs by sulforhodamine B assay; format: functional
[57] = read-out: LC50 (the source's name)

O=C1COCCN1c1ccc(NCc2cn(Cc3ccc(F)cc3)c3ccccc23)cc1
inhibition of growth at 10 µM (SF-295 [1]): 90%
inhibition of growth at 10 µM (SR [2]): 68%
GI50 (HCT-116 [3]): 50 nM
CC50 (HCT-116 [3]; [57]): > 100000 nM
GI50 (MDA-MB-231 [4]): 3800 nM
GI50 (UACC-257 [5]): 200 nM
TI [6]: 54
GI50 (SK-MEL-2 [7]): 1200 nM
inhibition of growth at 10 µM (NCI-H460 [8]): 93%
inhibition of growth at 10 µM (NCI-H226 [9]): 100%
GI50 (U-251 [10]): 1410 nM
inhibition of growth at 10 µM (U-251 [11]): 80%
GI50 (HOP-92 [12]): 1540 nM
GI50 (MCF7 [13]): 110 nM
inhibition of growth at 10 µM (OVCAR-5 [14]): 100%
GI50 [15]: 1310 nM
TGI [15]: 15100 nM
CC50 [15, 57]: 70800 nM
Activity (BV-2 [16]): Active
GI50 (K562 [17]): 1510 nM
inhibition of growth at 10 µM (TK-10 [18]): 100%
inhibition of growth at 10 µM (HOP-92 [19]): 96%
GI50 (TK-10 [20]): 40 nM
CC50 (TK-10 [20]; [57]): > 100000 nM
inhibition of growth at 10 µM (RPMI-8226 [21]): 98%
inhibition of growth at 10 µM (HOP-62 [22]): 77%
GI50 (OVCAR-5 [23]): 40 nM
CC50 (OVCAR-5 [23]; [57]): > 100000 nM
Activity (BV-2 [24]): Active
inhibition of growth at 10 µM (T47D [25]): 99%
GI50 (IGROV-1 [26]): 30 nM
CC50 (IGROV-1 [26]; [57]): > 100000 nM
inhibition of growth at 10 µM (UO-31 [27]): 96%
inhibition of growth at 10 µM (HCT-116 [28]): 96%
inhibition of growth at 10 µM (IGROV-1 [29]): 100%
GI50 (SW-620 [30]): 480 nM
GI50 (NCI-H460 [31]): 120 nM
inhibition of growth at 10 µM (K562 [32]): 89%
GI50 (RPMI-8226 [33]): 540 nM
inhibition of growth at 10 µM (SK-MEL-2 [34]): 100%
IC50 (BV-2 [35]): > 10000 nM
inhibition of growth at 10 µM (UACC-62 [36]): 100%
GI50 (T47D [37]): 70 nM
GI50 (MDA-MB-468 [38]): 20 nM
CC50 (MDA-MB-468 [38]; [57]): 500 nM
Activity (BV-2 [39]): Active
GI50 (OVCAR-4 [40]): 150 nM
GI50 (NCI-H226 [41]): 40 nM
CC50 (NCI-H226 [41]; [57]): 1100 nM
GI50 (UO-31 [42]): 2750 nM
GI50 (CAKI-1 [43]): 20 nM
CC50 (CAKI-1 [43]; [57]): > 100000 nM
GI50 (OVCAR-3 [44]): 280 nM
inhibition of growth at 10 µM (MDA-MB-468 [45]): 100%
inhibition of growth at 10 µM (OVCAR-4 [46]): 100%
inhibition of growth at 10 µM (CAKI-1 [47]): 100%
GI50 (HOP-62 [48]): 1470 nM
GI50 (SR [49]): 4500 nM
inhibition of growth at 10 µM (MDA-MB-231 [50]): 72%
inhibition of growth at 10 µM (UACC-257 [51]): 100%
inhibition of growth at 10 µM (SW-620 [52]): 87%
inhibition of growth at 10 µM (OVCAR-3 [53]): 100%
GI50 (UACC-62 [54]): 40 nM
CC50 (UACC-62 [54]; [57]): 800 nM
inhibition of growth at 10 µM (MCF7 [55]): 100%
GI50 (SF-295 [56]): 1090 nM

— ChEMBL document CHEMBL4814018, “Rationally designed TNF-α inhibitors: Identification of promising cytotoxic agents” (Bioorg Med Chem Lett, 2021)
